Key:
Set-up in all cases: scale not given here
ABUTH Velvetleaf [1] = experiment: Postemergence herbicidal evaluation, ABUTH; type: in vivo, Abutilon theophrasti, Medic.; settings: postemergence spray, rated about two-three weeks after treatment
In short: (§1)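 Two-week-old seedlings sprayed postemergence with compound in 80/20 acetone/water plus 1.0% methylated seed oil, at about 0.006–0.400 kg/ha, through a nozzle at 40 psi. Plants kept under greenhouse conditions and visually rated about two–three weeks after treatment; ratings from repeat tests averaged.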

AMBEL Ragweed, Common [2] = experiment: Postemergence herbicidal evaluation, AMBEL; type: in vivo, Ambrosia artemisifolia, L.; settings: postemergence spray, rated about two-three weeks after treatment
In short: as §1

CASOB Sicklepod [3] = experiment: Postemergence herbicidal evaluation, CASOB; type: in vivo, Cassia obtusifolia, L.; settings: postemergence spray, rated about two-three weeks after treatment
In short: as §1

[4] = test system: CHEAL Lambsquarters, Common; experiment: Postemergence herbicidal evaluation, CHEAL; type: in vivo, Chenopodium album, L.; settings: postemergence spray, rated about two-three weeks after treatment
In short: as §1

ECHOG Barnyardgrass [5] = experiment: Postemergence herbicidal evaluation, ECHOG; type: in vivo, Echinochloa crus-galli, (L.) Beau; settings: postemergence spray, rated about two-three weeks after treatment
In short: as §1

GALAP Galium [6] = experiment: Postemergence herbicidal evaluation, GALAP; type: in vivo, Galium aparine; settings: postemergence spray, rated about two-three weeks after treatment
In short: as §1

[7] = test system: IPOHE Morningglory, Ivyleaf; experiment: Postemergence herbicidal evaluation, IPOHE; type: in vivo, Ipomoea hederacea, (L.) Jacq.; settings: postemergence spray, rated about two-three weeks after treatment
In short: as §1

SETVI Foxtail, Green [8] = experiment: Postemergence herbicidal evaluation, SETVI; type: in vivo, Setaria viridis, (L.) Beau; settings: postemergence spray, rated about two-three weeks after treatment
In short: as §1

GLXMAW Soybean, Williams [9] = experiment: Postemergence herbicidal evaluation, GLXMAW; type: in vivo, Glycine max, (L.) Merr. cv Williams; settings: postemergence spray, rated about two-three weeks after treatment
In short: as §1

[10] = test system: TRZAWR Wheat, Winter, cv Riband; experiment: Postemergence herbicidal evaluation, TRZAWR; type: in vivo, Triticum aestivum; settings: postemergence spray, rated about two-three weeks after treatment
In short: as §1

ORYSAT Rice, Tebonnet [11] = experiment: Postemergence herbicidal evaluation, ORYSAT; type: in vivo, Oryza sativa, (L.); settings: postemergence spray, rated about two-three weeks after treatment
In short: as §1

ZEAMX Corn, Field [12] = experiment: Postemergence herbicidal evaluation, ZEAMX; type: in vivo, Zea mays, L. (Sammel-Bezeichnung); settings: postemergence spray, rated about two-three weeks after treatment
In short: as §1

ABUTH Velvetleaf [13] = experiment: Preemergence herbicidal evaluation, ABUTH; type: in vivo, Abutilon theophrasti, Medic.; settings: preemergence
In short: (§2)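 Visual ratings were taken four to five weeks after application. Before that, cups sown with seed in potting soil received a spray of compound dissolved in aqueous acetone, equivalent to about 0.013 to 0.800 kg/ha, and stood on greenhouse benches under conventional care.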

AMBEL Ragweed, Common [14] = experiment: Preemergence herbicidal evaluation, AMBEL; type: in vivo, Ambrosia artemisifolia, L.; settings: preemergence
In short: as §2

CASOB Sicklepod [15] = experiment: Preemergence herbicidal evaluation, CASOB; type: in vivo, Cassia obtusifolia, L.; settings: preemergence
In short: as §2

[16] = test system: CHEAL Lambsquarters, Common; experiment: Preemergence herbicidal evaluation, CHEAL; type: in vivo, Chenopodium album, L.; settings: preemergence
In short: as §2

ECHOG Barnyardgrass [17] = experiment: Preemergence herbicidal evaluation, ECHOG; type: in vivo, Echinochloa crus-galli, (L.) Beau; settings: preemergence
In short: as §2

GALAP Galium [18] = experiment: Preemergence herbicidal evaluation, GALAP; type: in vivo, Galium aparine; settings: preemergence
In short: as §2

[19] = test system: IPOHE Morningglory, Ivyleaf; experiment: Preemergence herbicidal evaluation, IPOHE; type: in vivo, Ipomoea hederacea, (L.) Jacq.; settings: preemergence
In short: as §2

SETVI Foxtail, Green [20] = experiment: Preemergence herbicidal evaluation, SETVI; type: in vivo, Setaria viridis, (L.) Beau; settings: preemergence
In short: as §2

GLXMAW Soybean, Williams [21] = experiment: Preemergence herbicidal evaluation, GLXMAW; type: in vivo, Glycine max, (L.) Merr. cv Williams; settings: preemergence
In short: as §2

[22] = test system: TRZAWR Wheat, Winter, cv Riband; experiment: Preemergence herbicidal evaluation, TRZAWR; type: in vivo, Triticum aestivum; settings: preemergence
In short: as §2

ORYSAT Rice, Tebonnet [23] = experiment: Preemergence herbicidal evaluation, ORYSAT; type: in vivo, Oryza sativa, (L.); settings: preemergence
In short: as §2

ZEAMX Corn, Field [24] = experiment: Preemergence herbicidal evaluation, ZEAMX; type: in vivo, Zea mays, L. (Sammel-Bezeichnung); settings: preemergence
In short: as §2

## COC(=O)COc1ccc(C)c(-n2nnc3cc(F)c(-n4c(=O)cc(C(F)(F)F)n(C)c4=O)cc32)c1 [Example 38]
ABUTH Velvetleaf [1]; 0.008 kg/ha
  Postemergence herbicidal rating ABUTH: 3.0
ABUTH Velvetleaf [1]; 0.016 kg/ha
  Postemergence herbicidal rating ABUTH: 8.0
ABUTH Velvetleaf [1]; 0.032 kg/ha
  Postemergence herbicidal rating ABUTH: 9.0
ABUTH Velvetleaf [1]; 0.062 kg/ha
  Postemergence herbicidal rating ABUTH: 9.0
AMBEL Ragweed, Common [2]; 0.008 kg/ha
  Postemergence herbicidal rating AMBEL: 2.0
AMBEL Ragweed, Common [2]; 0.016 kg/ha
  Postemergence herbicidal rating AMBEL: 7.0
AMBEL Ragweed, Common [2]; 0.032 kg/ha
  Postemergence herbicidal rating AMBEL: 7.0
AMBEL Ragweed, Common [2]; 0.062 kg/ha
  Postemergence herbicidal rating AMBEL: 9.0
CASOB Sicklepod [3]; 0.008 kg/ha
  Postemergence herbicidal rating CASOB: 0.0
CASOB Sicklepod [3]; 0.016 kg/ha
  Postemergence herbicidal rating CASOB: 0.0
CASOB Sicklepod [3]; 0.032 kg/ha
  Postemergence herbicidal rating CASOB: 0.0
CASOB Sicklepod [3]; 0.062 kg/ha
  Postemergence herbicidal rating CASOB: 1.0
[4]; 0.008 kg/ha
  Postemergence herbicidal rating CHEAL: 0.0
[4]; 0.016 kg/ha
  Postemergence herbicidal rating CHEAL: 0.0
[4]; 0.032 kg/ha
  Postemergence herbicidal rating CHEAL: 2.0
[4]; 0.062 kg/ha
  Postemergence herbicidal rating CHEAL: 3.0
ECHOG Barnyardgrass [5]; 0.008 kg/ha
  Postemergence herbicidal rating ECHCG: 0.0
ECHOG Barnyardgrass [5]; 0.016 kg/ha
  Postemergence herbicidal rating ECHCG: 0.0
ECHOG Barnyardgrass [5]; 0.032 kg/ha
  Postemergence herbicidal rating ECHCG: 3.0
ECHOG Barnyardgrass [5]; 0.062 kg/ha
  Postemergence herbicidal rating ECHCG: 3.0
GALAP Galium [6]; 0.008 kg/ha
  Postemergence herbicidal rating GALAP: 0.0
GALAP Galium [6]; 0.016 kg/ha
  Postemergence herbicidal rating GALAP: 0.0
GALAP Galium [6]; 0.032 kg/ha
  Postemergence herbicidal rating GALAP: 3.0
GALAP Galium [6]; 0.062 kg/ha
  Postemergence herbicidal rating GALAP: 4.0
[7]; 0.008 kg/ha
  Postemergence herbicidal rating IPOHE: 5.0
[7]; 0.016 kg/ha
  Postemergence herbicidal rating IPOHE: 5.0
[7]; 0.032 kg/ha
  Postemergence herbicidal rating IPOHE: 9.0
[7]; 0.062 kg/ha
  Postemergence herbicidal rating IPOHE: 9.0
SETVI Foxtail, Green [8]; 0.008 kg/ha
  Postemergence herbicidal rating SETVI: 0.0
SETVI Foxtail, Green [8]; 0.016 kg/ha
  Postemergence herbicidal rating SETVI: 0.0
SETVI Foxtail, Green [8]; 0.032 kg/ha
  Postemergence herbicidal rating SETVI: 7.0
SETVI Foxtail, Green [8]; 0.062 kg/ha
  Postemergence herbicidal rating SETVI: 9.0
GLXMAW Soybean, Williams [9]; 0.008 kg/ha
  Postemergence herbicidal rating GLXMAW: 5.5
GLXMAW Soybean, Williams [9]; 0.016 kg/ha
  Postemergence herbicidal rating GLXMAW: 5.5
GLXMAW Soybean, Williams [9]; 0.032 kg/ha
  Postemergence herbicidal rating GLXMAW: 6.0
GLXMAW Soybean, Williams [9]; 0.062 kg/ha
  Postemergence herbicidal rating GLXMAW: 7.5
[10]; 0.008 kg/ha
  Postemergence herbicidal rating TRZAWR: 3.5
[10]; 0.016 kg/ha
  Postemergence herbicidal rating TRZAWR: 4.5
[10]; 0.032 kg/ha
  Postemergence herbicidal rating TRZAWR: 6.0
[10]; 0.062 kg/ha
  Postemergence herbicidal rating TRZAWR: 8.0
ORYSAT Rice, Tebonnet [11]; 0.008 kg/ha
  Postemergence herbicidal rating ORYSAT: 1.0
ORYSAT Rice, Tebonnet [11]; 0.016 kg/ha
  Postemergence herbicidal rating ORYSAT: 2.0
ORYSAT Rice, Tebonnet [11]; 0.032 kg/ha
  Postemergence herbicidal rating ORYSAT: 3.5
ORYSAT Rice, Tebonnet [11]; 0.062 kg/ha
  Postemergence herbicidal rating ORYSAT: 6.0
ZEAMX Corn, Field [12]; 0.008 kg/ha
  Postemergence herbicidal rating ZEAMX: 7.5
ZEAMX Corn, Field [12]; 0.016 kg/ha
  Postemergence herbicidal rating ZEAMX: 8.0
ZEAMX Corn, Field [12]; 0.032 kg/ha
  Postemergence herbicidal rating ZEAMX: 8.0
ZEAMX Corn, Field [12]; 0.062 kg/ha
  Postemergence herbicidal rating ZEAMX: 8.0
ABUTH Velvetleaf [13]; rate 0.016 kg/ha
  ABUTH herbicidal rating: 0.0
ABUTH Velvetleaf [13]; rate 0.032 kg/ha
  ABUTH herbicidal rating: 0.0
ABUTH Velvetleaf [13]; rate 0.062 kg/ha
  ABUTH herbicidal rating: 2.0
ABUTH Velvetleaf [13]; rate 0.125 kg/ha
  ABUTH herbicidal rating: 9.0
AMBEL Ragweed, Common [14]; rate 0.016 kg/ha
  AMBEL herbicidal rating: 0.0
AMBEL Ragweed, Common [14]; rate 0.032 kg/ha
  AMBEL herbicidal rating: 0.0
AMBEL Ragweed, Common [14]; rate 0.062 kg/ha
  AMBEL herbicidal rating: 0.0
AMBEL Ragweed, Common [14]; rate 0.125 kg/ha
  AMBEL herbicidal rating: 9.0
CASOB Sicklepod [15]; rate 0.016 kg/ha
  CASOB herbicidal rating: 0.0
CASOB Sicklepod [15]; rate 0.032 kg/ha
  CASOB herbicidal rating: 0.0
CASOB Sicklepod [15]; rate 0.062 kg/ha
  CASOB herbicidal rating: 0.0
CASOB Sicklepod [15]; rate 0.125 kg/ha
  CASOB herbicidal rating: 2.0
[16]; rate 0.016 kg/ha
  CHEAL herbicidal rating: 9.0
[16]; rate 0.032 kg/ha
  CHEAL herbicidal rating: 9.0
[16]; rate 0.062 kg/ha
  CHEAL herbicidal rating: 9.0
[16]; rate 0.125 kg/ha
  CHEAL herbicidal rating: 9.0
ECHOG Barnyardgrass [17]; rate 0.016 kg/ha
  ECHCG herbicidal rating: 0.0
ECHOG Barnyardgrass [17]; rate 0.032 kg/ha
  ECHCG herbicidal rating: 0.0
ECHOG Barnyardgrass [17]; rate 0.062 kg/ha
  ECHCG herbicidal rating: 0.0
ECHOG Barnyardgrass [17]; rate 0.125 kg/ha
  ECHCG herbicidal rating: 0.0
GALAP Galium [18]; rate 0.016 kg/ha
  GALAP herbicidal rating: 0.0
GALAP Galium [18]; rate 0.032 kg/ha
  GALAP herbicidal rating: 0.0
GALAP Galium [18]; rate 0.062 kg/ha
  GALAP herbicidal rating: 0.0
GALAP Galium [18]; rate 0.125 kg/ha
  GALAP herbicidal rating: 0.0
[19]; rate 0.016 kg/ha
  IPOHE herbicidal rating: 0.0
[19]; rate 0.032 kg/ha
  IPOHE herbicidal rating: 0.0
[19]; rate 0.062 kg/ha
  IPOHE herbicidal rating: 0.0
SETVI Foxtail, Green [20]; rate 0.016 kg/ha
  SETVI herbicidal rating: 0.0
SETVI Foxtail, Green [20]; rate 0.032 kg/ha
  SETVI herbicidal rating: 0.0
SETVI Foxtail, Green [20]; rate 0.062 kg/ha
  SETVI herbicidal rating: 0.0
SETVI Foxtail, Green [20]; rate 0.125 kg/ha
  SETVI herbicidal rating: 9.0
GLXMAW Soybean, Williams [21]; rate 0.016 kg/ha
  GLXMAW herbicidal rating: 0.0
GLXMAW Soybean, Williams [21]; rate 0.032 kg/ha
  GLXMAW herbicidal rating: 0.0
GLXMAW Soybean, Williams [21]; rate 0.062 kg/ha
  GLXMAW herbicidal rating: 0.0
GLXMAW Soybean, Williams [21]; rate 0.125 kg/ha
  GLXMAW herbicidal rating: 0.0
[22]; rate 0.016 kg/ha
  TRZAWR herbicidal rating: 0.0
[22]; rate 0.032 kg/ha
  TRZAWR herbicidal rating: 0.0
[22]; rate 0.062 kg/ha
  TRZAWR herbicidal rating: 0.0
[22]; rate 0.125 kg/ha
  TRZAWR herbicidal rating: 0.0
ORYSAT Rice, Tebonnet [23]; rate 0.016 kg/ha
  ORYSAT herbicidal rating: 0.0
ORYSAT Rice, Tebonnet [23]; rate 0.032 kg/ha
  ORYSAT herbicidal rating: 0.0
ORYSAT Rice, Tebonnet [23]; rate 0.062 kg/ha
  ORYSAT herbicidal rating: 0.0
ORYSAT Rice, Tebonnet [23]; rate 0.125 kg/ha
  ORYSAT herbicidal rating: 0.0
ZEAMX Corn, Field [24]; rate 0.016 kg/ha
  ZEAMX herbicidal rating: 0.0
ZEAMX Corn, Field [24]; rate 0.032 kg/ha
  ZEAMX herbicidal rating: 0.0
ZEAMX Corn, Field [24]; rate 0.062 kg/ha
  ZEAMX herbicidal rating: 0.0
ZEAMX Corn, Field [24]; rate 0.125 kg/ha
  ZEAMX herbicidal rating: 0.0
